The test system of one series is lung carcinoma cells. The conditions noted are these: selective compared to normal endothelial cells, read-out: IC50 (proliferation); cited from earlier work.
In a further series the test system is HUVECs. Description: Cytotoxicity toward HUVECs. Type of series: cell-based, human. The note with it: previously determined.
A further series deals with MDA-MB-231 xenografts. The series can be described thus: MDA-MB-231-GFP xenograft growth and brain metastasis in nude mice. Type of series: in vivo. The note with it: daily injection of equimolar doses for five weeks; for size of the primary tumor (GFP fluorescence intensity, tumor mass): vs control.
Series [1] deals with T1, GAPDH in MDA-MB-231 cells (Homo sapiens, UniProt P04406).
T1 construct: host or cells: MDA-MB-231; MCF-10A
T1 sequence (P04406 whole entry): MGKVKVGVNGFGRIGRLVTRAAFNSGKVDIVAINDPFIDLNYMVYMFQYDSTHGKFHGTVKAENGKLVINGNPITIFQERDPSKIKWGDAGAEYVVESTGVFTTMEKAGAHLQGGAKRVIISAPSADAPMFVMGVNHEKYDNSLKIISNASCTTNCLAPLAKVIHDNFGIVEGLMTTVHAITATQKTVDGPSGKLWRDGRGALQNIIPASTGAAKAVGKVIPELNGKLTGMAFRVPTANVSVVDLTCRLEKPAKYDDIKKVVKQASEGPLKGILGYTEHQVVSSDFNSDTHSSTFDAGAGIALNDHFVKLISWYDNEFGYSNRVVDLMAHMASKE
Description: GAPDH activity in cells. It is filed as cell-based. The note with it: MDA-MB-231, 0-100 μM, 1 h, 37° C. Here is the method: (§1) The cells were treated with varied concentrations (0, 25, 50, 75, 100 μM) of IPA/NO-aspirin (blue) or DEA/NO-aspirin (green) for 1 h at 37° C. GAPDH activity was assessed by measuring fluorescence intensity at 570 nm. Data are plotted as mean±SD (n=3).
(§2) GAPDH is a critical glycolytic enzyme that can play an important role in cancer therapy as solid tumors often utilize glycolytic pathways even during normoxia to meet their energy requirements. Thus, inhibition of GAPDH can diminish ATP availability for tumor cells. GAPDH is also involved in initiation of apoptosis and in DNA repair.

The target of another series is T2, GAPDH in MCF-10A cells (Homo sapiens, UniProt P04406).
T2 construct: host or cells: MDA-MB-231; MCF-10A
T2 sequence (P04406 whole entry): as above
The series can be described thus: GAPDH activity in cells. Type of series: cell-based. The note with it: 0-100 μM, 1 h, 37° C. The protocol:
as §1, §2

Series [2] relates to MDA-MB-231 cells. Description: Oxidation of DCF (oxidant level) in cells. Type of series: cell-based, human. The conditions noted are these: 100 μM, 37° C., MDA-MB-231 as representative example.
Description: DCF loaded cells were treated with IPA/NO-aspirin (blue), DEA/NO-aspirin (green), IPA/NO (magenta), DEA/NO (brown), aspirin (red) or DMSO (0.1%; black) at 37° C., and the fluorescence at 535 nm was measured in a time-dependent manner. Data are plotted as mean±SD (n=4).
Series [3] has as its system MDA-MB-231 cells. The series can be described thus: Alkaline Comet assay of DNA damage. Type of series: cell-based, human. The conditions noted are these: 75 μM, 8 hours, 37° C. Here is the method:
Tail length: mean±SEM, n≥150.
Autoxidation of both NO and HNO leads to species that are capable of damaging DNA. Conversion of NO to N2O3 can induce mutations through base deamination) while the product of the reaction of HNO with O2 can oxidize and cleave DNA. To investigate the possibility of RNS-induced DNA damage as a mechanism of cytotoxicity, the effect of the NONO-aspirin prodrugs was studied with the alkaline Comet assay in MDA-MB-231 cells. After 8 hours, the damage induced by treatment with 50 μM IPA/NO-aspirin was significant (FIG. 7A) and similar to the H2O2 positive control (FIG. 7C). […] This may be an important factor in the observed enhanced cytotoxicity of IPA/NO-aspirin. In particular, IPA/NO-aspirin is able to damage DNA (FIG. 7) including inducing double strand breaks, in a manner similar to radiation therapy and chemotherapies such as doxorubicin.

Another series has as its system ER-α. The series can be described thus: ER-α levels (mRNA of ER1) in ER-α(−) cells. It is filed as cell-based. The conditions noted are these: FIG. 20.
The next series concerns BCL-2. The series can be described thus: BCL-2 expression. Type of series: cell-based. The note with it: FIG. 18.
For the next series, the system named is prostaglandin E2 (PGE2). The note with it: cited from earlier work.

The values below come from patent US10213445B2, “Compositions and methods of diazeniumdiolate-based prodrugs for treating cancer” (ARIZONA BOARD OF REGENTS ON BEHALF OF THE UNIVERSITY OF …, priority 2014, dated 2019).

Description for MDA-MB-231 xenografts: The cells were allowed to grow for 14 d, and the animals (40) were randomly divided into four groups (control, aspirin, IPA/NO-aspirin or DEA/NO-aspirin). Treated groups were injected daily with equimolar doses of DEA/NO-aspirin or IPA/NO-aspirin (16 mg kg^−1) or aspirin (9 mg kg^−1)) or with DMSO for the next five weeks.
For examples utilizing mouse tumor model methods, the following procedure was instituted. Analysis of tumor growth was carried out using protocols approved by the Committee on the Ethics of Animal Experiments of the National Cancer Institute (RBB-144) and adhered with the recommendations in the United States National Research Council's “Guide for the Care and Use of Laboratory Animals,” the United States Public Health Service's “Guide for the Care and Use of Laboratory Animals” and the “Policy on Humane Care and Use of Laboratory Animals”. The vivarium was maintained at 23° C. on a 12 h light/12 h dark cycle with ad libitum access to food and water. Nude mice (n=40) under general anesthesia were implanted with 7.5×10^5 MDA-MB-231 cells transfected with GFP by injection underneath the fourth left mammary gland. Prior to implantation, pedal withdrawal and eyelid reflexes were examined to ensure that mice were under stage III of anesthesia. At 14 days post-inoculation, the mice were randomly divided into four groups and treated by daily injection of equimolar doses (10 μL of 100 mM stock) of aspirin (9.00 mg kg^−1), IPA/NO-aspirin (15.8 mg kg^−1) or DEA/NO-aspirin (16.3 mg kg^−1) or with vehicle (DMSO). After five weeks, the tumor size was measured using in vivo fluorescent imaging for quantification of the GFP tag. In brief, mice were under general anesthesia throughout the whole body imaging process, and GFP signals were captured and quantified in an Xenogen IVIS 100 Imaging System according to the manufacturer's protocol. To assess metastasis in the brain, the animals were subsequently sacrificed following the approved method and guidelines.

Consider `CCN(CC)[N+]([O-])=NOCOC(=O)c1ccccc1OC(C)=O` [DEA/NO-aspirin, O2-(Acetylsalicyloyloxymethyl)-1-(N,N-Diethylamino)-diazen-1-ium-1,2-diolate], for which the IC50 with lung carcinoma cells was 100 µM. Moreover, the “cytotoxicity toward HUVECs” value in the series on HUVECs was “neither IPA/NO-aspirin or DEA/NO-aspirin are appreciably cytotoxic”. Moreover, the “metastasis to the brain (GFP fluorescence)” value in the series with MDA-MB-231 xenografts was “decreased metastasis compared to aspirin and untreated controls, the results were not statistically significant”. The “size of the primary tumor (GFP fluorescence intensity, tumor mass)” value in the series on MDA-MB-231 xenografts is given as “substantial, although not statistically significant, reduction”. Also, the GAPDH activity entry (in series [1]; on GAPDH in MCF-10A cells) was “not inhibitory in either cell line” throughout. In the series on MDA-MB-231 cells [2], the “oxidation of DCF (fluorescence intensity)” value is on record as “minimal impact”. Also, the “DNA damage (Comet assay)” value in the series on MDA-MB-231 cells [3] is reported as “did not differ from the DMSO-treated negative control”.

Turning to `CC(=O)Oc1ccccc1C(=O)OCON=[N+]([O-])NC(C)C` [IPA/NO-aspirin, O2-(Acetylsalicyloyloxymethyl)-1-(N-isopropylamino)-diazen-1-ium-1,2-diolate], the ER-α levels result in the series on ER-α is listed as “inhibit the aspirin effect”. For the same molecule, the IC50 in the series with lung carcinoma cells is 100 µM. Further, in the series on HUVECs, the “cytotoxicity toward HUVECs” value is on record as “neither IPA/NO-aspirin or DEA/NO-aspirin are appreciably cytotoxic”. In addition, in the series with MDA-MB-231 xenografts, the “metastasis to the brain (GFP fluorescence)” value was “decreased metastasis compared to aspirin and untreated controls, the results were not statistically significant”. Besides, the “size of the primary tumor (GFP fluorescence intensity, tumor mass)” value in the series on MDA-MB-231 xenografts is on record as “significant decrease”. The GAPDH activity result in [1] was “inhibited GAPDH activity in a concentration (FIG. 9A) and time-dependent-manner”; at GAPDH in MCF-10A cells it was “did not affect GAPDH activity”. The “oxidation of DCF (fluorescence intensity)” value in the series on MDA-MB-231 cells [2] is listed as “significant increase in fluorescence intensity”. Further, the BCL-2 expression entry in the series on BCL-2 is reported as “inhibits the aspirin effect”. Besides, in the series on prostaglandin E2 (PGE2), the “level of PGE2” value is on record as “reduction in PGE2 levels”.
